melting point [°C]	Compound
> 300	O=C(O)c1ccc(-c2cnc3c(c2)N(Cc2c(F)ccc(F)c2Cl)C(=O)CN3)cc1
310 to 313	COc1ccccc1-c1ccc2cnc(Nc3ccc4c(c3)NC(=O)CC4)nn12
178 to 180	C[C@H]1C[C@@](O)(c2cccc(S(=O)(=O)c3ccc4c(c3)CCC(=O)N4)c2)CCO1
247 to 249	O=C(O)c1ccc(-c2ccc3c(c2)CCN(CCN2CCCC2)C3=O)cc1
94 to 95	COc1cc(CCCC2OC(=O)NC2=O)cc(OC)c1OCc1coc(/C=C/c2ccccc2)n1 (centres undefined)
187 to 189	COc1ccc(-c2ccc(C(=O)N3Cc4cccn4Cc4ccccc43)cc2)cc1
133 to 134	CC(C)(CNS(=O)(=O)c1ccc(-c2ccccn2)s1)N1CCC(Oc2ccc(F)c(F)c2)CC1
107 to 108	COc1c(Cl)ccc(-c2cc(N)c(Cl)c(C(=O)OCc3ccccc3)n2)c1Cl
104 to 106	CCc1ccc(S(=O)(=O)Nc2ccc(Cl)cc2[N+](=O)[O-])cc1
141	CCCc1nc(C)n2nc(S(=O)(=O)Cl)nc2c1Cc1ccc(-c2ccccc2C#N)cc1
203	Cc1ccc(C(=O)Nc2ccc(C#N)cc2)cc1Nc1ncc(-c2cccnc2)o1
107 to 109	CC(Cc1ccc(Oc2cc(N3CCN(Cc4ccccc4)CC3)ncn2)cc1)(Oc1ccccc1)C(=O)O (centres undefined)
> 250	Cc1cc(=O)[nH]nc1-c1ccc(-c2n[nH]c(=O)cc2C)cc1
168 to 170	CSCC(O)CN1C(=O)C(CCC(=O)O)(NC(=O)c2ccc(Cl)c(Cl)c2)c2ccccc21 (centres undefined)
> 320	O=C(O)c1ccc2nc3c(c(=O)n2c1)CCC3=Cc1cccc(O)c1
81 to 83	CS(=O)(=O)OCCN1c2ccccc2Oc2ccccc21
166 to 168	O=C1CCC(N2C(=O)c3cccc(CNC(=O)OCc4ccccc4)c3C2=O)C(=O)N1 (centres undefined)
156 to 157	CN(CCOc1ccc(CC(Sc2ccc(Cl)cc2)C(=O)O)cc1)c1nc2ccccc2o1 (centres undefined)

Further lines, the compound ahead of its results:

Compound	melting point [°C]
COc1cc(-n2nc(C)[nH]c2=O)ccc1C	164 to 168
COc1ccc(Cn2cnc3c(-c4ccco4)nc(-c4ccccc4)nc32)cc1	140 to 142
CSCCCn1c(C)c(C(=O)c2cccc(Cl)c2Cl)c2cccc(Cl)c21	87
CC(C)(C)OC(=O)NCC(O)CN (centres undefined)	77 to 79
Cc1cc(C)c(N[C@@H](C)C(=O)O)c(C)c1	318 to 320
CCc1c(C)[nH]c(=O)c(I)c1Oc1cc(C)cc(C)c1	240
c1ccc(N2CCN(c3nc4c(c(NC5CCCCC5)n3)SCC4)CC2)cc1	174 to 175
O=C(Nc1c(Cl)cnn1-c1c(F)c(F)c(C(F)(F)F)c(F)c1F)C(Cl)Cl	115 to 116
CCC(=O)n1nc(-c2ccc(Cl)cc2)nc1C	108 to 109
COc1ccc(-c2cc3c(OC)cc(OC)cc3nc2OC(C)C(=O)N(C)C)cc1 (centres undefined)	54 to 55
CCOC(=O)C(C)(C(=O)OCC)c1ccc(N)c(C(F)(F)F)c1	73 to 75
O=C(NCCc1ccccc1Cl)C1CCCCC1	93.5 to 93.9
C=CC1CC2=CC(=O)CCC2C2CCC3(CC)C(O)CCC3C12 (centres undefined)	155 to 156
CC(c1ccccc1)C(C(=O)c1ccc(Cl)cc1)n1cncn1 (centres undefined)	163 to 165
NC(=O)NCCS(=O)CC(O)CO (centres undefined)	102
FC(F)c1nc2ccccc2n1-c1nc(N2CCOCC2)nc(N2CCOCC2)n1	211 to 214
O=S1(=O)CCON=C1c1c(Cl)cccc1Cl	180 to 182
O[C@@H]1CCCC[C@H]1N=Cc1ccccc1 (relative stereo)	86
O=[N+]([O-])c1ccc(OCC(O)CCCl)cc1 (centres undefined)	60 to 63
OC(C=C(Cl)Cl)(Cn1cncn1)c1ccc(Cl)cc1 (centres undefined)	95 to 99
CC(C)(C)c1cc(CCc2ccccc2NC(=O)NC(C)(C)c2ccc(Cl)c(Cl)c2)cc(C(C)(C)C)c1O	203 to 205

— a melting point compilation (Tetko et al.; mined from patent text by program, amines drawn as free bases though some values may be those of a salt)
